The values that follow come from patent US5002933A, “Hexapeptide and medicinal preparation produced from it to treat erosive and ulcerative lesions of gastrointestinal tract” (priority 1987, dated 1991).

Series [1] has as its system cysteamine-induced duodenal ulcer. Description: cysteamine-induced duodenal ulcer, oral administration. Format: in vivo, rats. The settings on record: for Lesion scoring: given immediately and 6 h after cysteamine, score 0-4, 24 h; for Incidence: ratio of animals with ulcer to survivals; for Ulcer index: severity of lesion + doubled incidence; for Ulcer index reduction, %: versus control group. How it is done: The efficacy of the proposed hexapeptide has been studied on experimental animals. Vister male rats were used to compare the therapeutic efficacy of the proposed preparation with that of the known preparations.
Duodenal ulcer was induced in experimental animals by subcutaneous administration of cysteamine hydrochloride in a dose of 350 mg per kg body weight (in 0.5 ml of physiological saline). The proposed preparation was given to the rats immediately and in 6 hours following the administration of the provoking agent. The proposed hexapeptide was given into the stomach through a gastric tube in doses of 10 and 100 mcg/kg; the known hexapeptide (U.S. Pat. No. 4,565,705) was given in a dose of 100 mcg/kg (cimetidine in a dose 10 mg/kg) in 0.5 ml of a 3 percent milk (five-fold diluted in physiological saline). Control animals were given 0.5 ml of a 3 percent milk diluted in a 5-fold volume of physiological saline immediately after administration of cysteamine hydrochloride and 6 hours later. The animals were sacrificed by decapitation in 24 hours after administration of cysteamine hydrochloride and the condition of the duodenal mucosa was assessed in them.
The severity of lesion was determined for each group of the rats using the following scoring system: 0--absense of ulceration; 1--erosion; 2--single ulcer; 3--multiple ulcers; 4--perforating ulcer. Besides, the incidence of lesion was determined in each group: the ratio of the animals with ulcer to the total number of survivals by the end of the experiment was determined. A conventional ulcer index (severity of lesion+doubled incidence of affections) was thus derived as the summary involvement index.
The obtained findings were treated statistically using the Student t-criterion (for severity of lesion) and Pirson X^2 criterion (for the incidence). The differences at the level of 95 percent significance were taken as trustworthy (P<0.05).

In series [2] the test system is indomethacin-induced ulcers of the small intestine. Description: indomethacin-induced ulcers of the small intestine. The settings on record: for Average number of ulcers: 30-cm distal small intestine, 24 h after indomethacin 20 mg/kg. The series is classed as in vivo, rats. How it is done: The proposed hexapeptide was also studied in experiments with indomethacin-induced ulcers of the small intestine. The efficacy of the proposed hexapeptide was compared with that of sulfasalazine. Indomethacin was given to the rats into the stomach through a tube in a dose of 20 mg/kg, in the form of a suspension in 0.5 ml of physiological saline. The proposed hexapeptide or sulfasalazine were given in doses of 100 μg/kg or 200 mg/kg respectively immediately after administration of indomethacin or 6 hours later. Indomethacin was given with 0.5 ml of a 3% milk diluted in 5 volumes of physiological saline. The same amount of the milk solution was given to the control animals. The rats were decapitated in 24 hours after the administration of indomethacin and the number of ulcers on the mucosa of a 30-cm long distal small intestine was counted. […] The average number of ulcers was determined for each group of the animals.
The findings were processed statistically using the Student t-criterion. Differences at the significance level of 95 % were taken as trustworthy (at P<0.05).

The nature of series [3]: solubility of the hexapeptide powder. Format: physicochemical.
The nature of another series: acute toxicity tests. Format: in vivo.
The nature of series [4]: blood cell composition and haemodynamic indices in the experiments. The settings on record: in the experiments with the proposed hexapeptide. The series is classed as in vivo.

Square brackets hold non-standard residues; d marks the D form. Ends that are not written are not given here.

With `CN/C(=N/CCSCc1nc[nH]c1C)NC#N` [cimetidine, reference compound], in series [1] (10 mg/kg per os), the Lesion scoring is reported as 1.00; the Incidence came out at 0.33; the Ulcer index stood at 1.66; the “Ulcer index reduction, %” value is 57%.

Consider `O=C(O)c1cc(/N=N/c2ccc(S(=O)(=O)Nc3ccccn3)cc2)ccc1O` [sulfasalazine, reference compound], for which, in series [2] (200 mg/kg, versus control), the “decrease of the number of ulcers in the intestine” value is listed as 46%. Further, the “Average number of ulcers” value in series [2] (sulfasalazine 200 mg/kg) turned out to be 27.50 ± 5.28.

For Y[dA]GFLE [proposed hexapeptide], in series [1] (10 μg/kg per os), the Lesion scoring was determined as 1.60; the Incidence came to 0.80; the Ulcer index is listed as 3.20; the “Ulcer index reduction, %” value was 18%. In addition, in series [1] (100 μg/kg per os), the Lesion scoring is on record as 0.83; the Incidence is given as 0.31; the Ulcer index worked out at 1.45; the “Ulcer index reduction, %” value was 63%. The “anti-ulcer activity relative to cimetidine” value in series [1] (dose comparison, 100 μg/kg versus cimetidine 10 mg/kg, duodenum) worked out at 100 times. Further, the solubility result in series [3] (distilled water, physiological saline, alcohol) is recorded as “readily soluble”. The solubility result in series [3] (ether, ethyl actate, benzene, or hexane) is recorded as “insoluble”. Further, the “Average number of ulcers” value in series [2] (100 μg/kg) came out at 23.40 ± 5.36. In addition, the “decrease of the average number of ulcers in the distal small intestine” value in series [2] (100 μg/kg, versus control) worked out at 52%. In series [2] (dose comparison, 100 μg/kg versus sulfasalazine 200 mg/kg, small intestine), the “anti-ulcer activity relative to sulfasalazine” value amounted to 2000 times. In addition, the LD50 – broadly, the dose expected to kill half of the subjects tested – in “acute toxicity tests” is recorded as 250 mg/kg. For the same compound, in series [4], the “changes in the cell composition of the blood” value is “No changes” and the “changes in the main haemodynamic indices” value is “No changes”.
